In patent US4107424A, “1-N-[(S)-α-hydroxy-ω-aminoacyl] derivatives of 3',4'-dideoxykanamycin B and 3'-deoxykanamycin B antibiotics” (Zaidan Hojin Biseibutsu Kagaku Kenkyu Kai, priority 1972, dated 1978):
Values after ≈ are worked out from the molar mass of the structure shown. Where two headings read alike, the source gives them in different places.

Legend:
[1] = system: Pseudomonas aeruginosa No.12; experiment: Minimal inhibitory concentration, agar dilution streak method; type: cell-based; settings: nutrient agar, 37° C, 18 hours
Procedure: (§1) *Agar Agar dilution streak method (nutrient agar, 37° C, 18 hours)
(§2) *Agar dilution streak method (nutrient agar, 37° C, 18 hours).

[2] = system: Escherichia coli K-12 LA 290 R 55; experiment: as above; type: cell-based; settings: 18 h
Procedure: as §1, §2

[3] = system: Staphylococcus aureus FDA 209P; experiment: as above; type: cell-based; settings: FDA209P, nutrient agar, 37° C, 18 hours
Procedure: as §1, §2

[4] = system: Escherichia coli K-12 JR 66/W 677; experiment: as above; type: cell-based; settings: Escherichia coli, 18 h
Procedure: as §1, §2

[5] = system: Escherichia coli K-12 W 677; experiment: as above; type: cell-based; settings: K12W677, nutrient agar, 37° C, 18 hours
Procedure: as §1, §2

[6] = system: Escherichia coli K-12 ML 1410; experiment: as above; type: cell-based; settings: K12ML1410, nutrient agar, 37° C, 18 hours
Procedure: as §1, §2

[7] = system: Pseudomonas aeruginosa A 3; experiment: as above; type: cell-based; settings: A3, nutrient agar, 37° C, 18 hours
Procedure: as §1, §2

[8] = system: Pseudomonas aeruginosa GN 315; experiment: as above; type: cell-based; settings: GN315, nutrient agar, 37° C, 18 hours
Procedure: as §1, §2

[9] = system: Escherichia coli K-12 ML 1629; experiment: as above; type: cell-based; settings: K12ML1629, nutrient agar, 37° C, 18 hours
Procedure: as §1, §2

mice = experiment: Acute intravenous toxicity (LD50) in mice; settings: in words
in vivo = settings: mouse, iv
[10] = system: gram-positive and gram-negative bacteria; experiment: Antibacterial activity (in words); type: cell-based
Procedure: (§3) [α]D^22 + 38°, (c 0.85, water).

[11] = system: Escherichia coli K-12 ML 1410 R 81; experiment: Minimal inhibitory concentration, agar dilution streak method; type: cell-based; settings: 18 h, read-out: Minimal inhibitory concentration
Procedure: as §1, §2

Escherichia coli K-12 = experiment: as above; type: cell-based; settings: K12, nutrient agar, 37° C, 18 hours, read-out: Minimal inhibitory concentration
Procedure: as §1, §2

[12] = system: Escherichia coli K-12 LA 290 R 56; experiment: as above; type: cell-based; settings: 18 h, read-out: Minimal inhibitory concentration
Procedure: as §1, §2

[13] = system: Escherichia coli K-12 ML 1630; experiment: as above; type: cell-based; settings: K12ML1630, nutrient agar, 37° C, 18 hours, read-out: Minimal inhibitory concentration
Procedure: as §1, §2

[14] = system: Klebsiella pneumoniae type 22 #3038; experiment: as above; type: cell-based; settings: Klebsiella pneumoniae; nutrient agar, 37° C, 18 hours
Procedure: as §1, §2

[15] = system: Pseudomonas aeruginosa TI-13; experiment: as above; type: cell-based; settings: TI13, nutrient agar, 37° C, 18 hours, read-out: Minimal inhibitory concentration
Procedure: as §1, §2

[16] = system: Escherichia coli K-12 LA 290 R 64; experiment: as above; type: cell-based; settings: nutrient agar, 37° C, 18 hours, read-out: Minimal inhibitory concentration
Procedure: as §1, §2

Salmonella typhosa T-63 = experiment: as above; type: cell-based; settings: Salmonella enterica, nutrient agar, 37° C, 18 hours
Procedure: as §3, §1, §2

Sarcina lutea PCI 1001 = experiment: as above; type: cell-based; settings: Micrococcus luteus, PCI1001; nutrient agar, 37° C, 18 hours; read-out: Minimal inhibitory concentration
Procedure: as §3, §1, §2

[17] = system: Escherichia coli J 5 R 11-2; experiment: as above; type: cell-based; settings: J5R112, 18 h, read-out: Minimal inhibitory concentration
Procedure: as §3, §1, §2

Proteus rettgeri GN 311 = experiment: as above; type: cell-based; settings: Providencia rettgeri, GN311; nutrient agar, 37° C, 18 hours
Procedure: as §3, §1, §2

[18] = system: Pseudomonas aeruginosa 99; experiment: as above; type: cell-based; settings: nutrient agar, 37° C, 18 hours, read-out: Minimal inhibitory concentration
Procedure: as §3, §1, §2

Escherichia coli NIHJ = experiment: as above; type: cell-based; settings: nutrient agar, 37° C, 18 hours
Procedure: as §3, §1, §2

[19] = system: Escherichia coli K-12 R-5; experiment: as above; type: cell-based; settings: K12R5, nutrient agar, 37° C, 18 hours
Procedure: as §3, §1, §2

[20] = system: Escherichia coli K-12 C 600 R 135; experiment: as above; type: cell-based; settings: 18 h, read-out: Minimal inhibitory concentration
Procedure: as §3, §1, §2

Proteus rettgeri GN 466 = experiment: as above; type: cell-based; settings: Providencia rettgeri, GN466; nutrient agar, 37° C, 18 hours
Procedure: as §3, §1, §2

[21] = system: Bacillus subtilis NRRL B-558; experiment: as above; type: cell-based; settings: NRRLB558, nutrient agar, 37° C, 18 hours
Procedure: as §3, §1, §2

[22] = system: Klebsiella pneumoniae PCI 602; experiment: as above; type: cell-based; settings: PCI602, nutrient agar, 37° C, 18 hours
Procedure: as §3, §1, §2

[23] = system: Mycobacterium smegmatis ATCC 607; experiment: as above; type: cell-based; settings: Mycolicibacterium smegmatis, ATCC607; nutrient agar, 37° C, 48 hours; read-out: Minimal inhibitory concentration
[24] = read-out: minimum inhibitory concentrations
[25] = drug-resistant strain, read-out: minimum inhibitory concentrations
[26] = read-out: Minimal inhibitory concentration

| Compound | MIC [11] [µg/mL] | MIC [1, 26] [µg/mL] | MIC [2, 26] [µg/mL] | MIC [3, 26] [µg/mL] | MIC (Escherichia coli K-12) [µg/mL] | MIC [12] [µg/mL] | MIC [13] [µg/mL] | MIC [4, 26] [µg/mL] | MIC [5, 26] [µg/mL] | MIC [14] [µg/mL] | MIC [15] [µg/mL] | MIC [6, 26] [µg/mL] | MIC [7, 26] [µg/mL] | MIC [8, 26] [µg/mL] | MIC [9, 26] [µg/mL] | MIC [16] [µg/mL] | MIC (Salmonella typhosa T-63) [µg/mL] | MIC (Sarcina lutea PCI 1001) [µg/mL] | MIC [17] [µg/mL] | MIC (Proteus rettgeri GN 311) [µg/mL] | also measured |
| --- | --- | --- | --- | --- | --- | --- | --- | --- | --- | --- | --- | --- | --- | --- | --- | --- | --- | --- | --- | --- | --- |
| CNC[C@H]1O[C@H](O[C@H]2[C@H](O)[C@@H](O[C@H]3O[C@H](CO)[C@@H](O)[C@H](N)[C@H]3O)[C@H](NC(=O)[C@@H](O)CCN)C[C@@H]2N)[C@H](N)C[C@@H]1O [AHB-methyldeoxykanamycin B, 1-N-[(S)-4-amino-2-hydroxybutyryl]-3'-deoxy-6'-N-methylkanamycin B] | – | – | – | – | – | – | – | – | – | – | – | – | – | – | – | – | – | – | – | – | MIC [1, 24]: 0.78 µg/mL (≈ 1.34 µM); MIC [2, 24]: 0.78 µg/mL (≈ 1.34 µM); MIC [3, 24]: 0.78 µg/mL (≈ 1.34 µM); MIC [4, 24]: 3.12 µg/mL (≈ 5.35 µM); MIC [5, 24]: 3.12 µg/mL (≈ 5.35 µM); MIC [6, 24]: 0.78 µg/mL (≈ 1.34 µM); MIC [7, 24]: 0.78 µg/mL (≈ 1.34 µM); MIC [8, 25]: 6.25 µg/mL (≈ 10.7 µM); MIC [9, 25]: 0.78 µg/mL (≈ 1.34 µM); toxicity (mice): toxicity as low as that of their parent substances; LD50 (in vivo): > 100 mg/kg; antibacterial activity compared with parent or reference substance ([10]; sensitive (and resistant) bacteria): antibacterial activity as high as that of their parent substances; antibacterial activity ([10]; various gram-positive and gram-negative bacteria, including resistant strains): high antibacterial activity against the kanamycin-resistant strains |
| NC[C@H]1O[C@H](O[C@H]2[C@H](O)[C@@H](O)[C@H](N)C[C@@H]2N)[C@H](N)[C@@H](O)[C@@H]1O [Neamine, neamine] | > 100 | > 100 | 5.25 (≈ 16.3 µM) | 6.25 (≈ 19.4 µM) | 6.25 (≈ 19.4 µM) | 12.5 (≈ 38.8 µM) | > 100 | > 100 | 6.25 (≈ 19.4 µM) | > 100 | > 100 | 12.5 (≈ 38.8 µM) | > 100 | > 100 | > 100 | 6.25 (≈ 19.4 µM) | 3.12 (≈ 9.68 µM) | > 100 | > 100 | 100 (≈ 310 µM) | MIC [18]: > 100 µg/mL; MIC (Escherichia coli NIHJ): 12.5 µg/mL (≈ 38.8 µM); MIC [19]: > 100 µg/mL; MIC [20]: 12.5 µg/mL (≈ 38.8 µM); MIC (Proteus rettgeri GN 466): 25 µg/mL (≈ 77.6 µM); MIC [21]: 0.78 µg/mL (≈ 2.42 µM); MIC [22]: 12.5 µg/mL (≈ 38.8 µM); MIC [23]: 12.5 µg/mL (≈ 38.8 µM) |
| NC[C@H]1O[C@H](O[C@H]2[C@H](O[C@@H]3O[C@H](CO)[C@@H](O)[C@H]3O)[C@@H](O)[C@H](N)C[C@@H]2N)[C@H](N)[C@@H](O)[C@@H]1O [Ribostamycin, 5-0-β-D-ribofuranosyl-neamine] | > 100 | > 100 | 3.12 (≈ 6.87 µM) | 3.12 (≈ 6.87 µM) | 3.12 (≈ 6.87 µM) | 3.12 (≈ 6.87 µM) | > 100 | > 100 | 1.56 (≈ 3.43 µM) | > 100 | > 100 | 3.12 (≈ 6.87 µM) | > 100 | > 100 | > 100 | 1.56 (≈ 3.43 µM) | 1.56 (≈ 3.43 µM) | 100 (≈ 220 µM) | > 100 | 12.5 (≈ 27.5 µM) | MIC [18]: > 100 µg/mL; MIC (Escherichia coli NIHJ): 6.25 µg/mL (≈ 13.8 µM); MIC [19]: 50 µg/mL (≈ 110 µM); MIC [20]: 1.56 µg/mL (≈ 3.43 µM); MIC (Proteus rettgeri GN 466): 6.25 µg/mL (≈ 13.8 µM); MIC [21]: 3.12 µg/mL (≈ 6.87 µM); MIC [22]: 1.56 µg/mL (≈ 3.43 µM); MIC [23]: 6.25 µg/mL (≈ 13.8 µM) |
